From ChEMBL document CHEMBL1201862, “PubChem BioAssay data set” (2004)
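Briefly, cells in 96-well plates were exposed to five compound concentrations for 48 h, and endpoints were estimated by linear interpolation. Abbreviation: GI50, concentration required for 50% inhibition of growth.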 The source made the active and inactive calls. Rule as the data show it: active = GI50 up to about 1.1 µM and inactive = higher.

Columns and labels:
Assay in all cases: growth of human tumour cells (NCI), 48 h
SNB-19 = system: SNB-19
OVCAR-3 = system: OVCAR-3
T47D = system: T47D
SF-295 = system: SF-295
KM12 = system: KM12
HOP-62 = system: HOP-62
SN12C = system: SN12C
786-0 = system: 786-0
HCT-15 = system: HCT-15
SF-539 = system: SF-539
DU-145 = system: DU-145
Hs-578T = system: Hs-578T
IGROV-1 = system: IGROV-1
SK-OV-3 = system: SK-OV-3
SF-268 = system: SF-268
OVCAR-5 = system: OVCAR-5
UACC-62 = system: UACC-62
SW-620 = system: SW-620
A549 = system: A549
U-251 = system: U-251

SMILES	GI50 (SNB-19)	GI50 (OVCAR-3)	GI50 (T47D)	GI50 (SF-295)	GI50 (KM12)	GI50 (HOP-62)	GI50 (SN12C)	GI50 (786-0)	GI50 (HCT-15)	GI50 (SF-539)	GI50 (DU-145)	GI50 (Hs-578T)	GI50 (IGROV-1)	GI50 (SK-OV-3)	GI50 (SF-268)	GI50 (OVCAR-5)	GI50 (UACC-62)	GI50 (SW-620)	GI50 (A549)	GI50 (U-251)
COn1cc(C=O)c2ccccc21	69.7 µM (inactive)	36.6 µM (inactive)	65.8 µM (inactive)	44.1 µM (inactive)	23.9 µM (inactive)	81.3 µM (inactive)	> 80.4 µM (inactive)	> 67 µM (inactive)	> 70.5 µM	> 45.6 µM (inactive)	> 82 µM (inactive)	37.4 µM (inactive)	> 62.8 µM (inactive)	67 µM (inactive)	68.4 µM (inactive)	> 74.6 µM (inactive)	41 µM (inactive)	26 µM (inactive)	> 67 µM (inactive)	55.6 µM (inactive)
O=C1Nc2ccccc2/C1=c1\[nH]c(=O)/c(=C\c2ccc(OCc3ccccc3)cn2)[nH]c1=O	31.4 µM (inactive)	> 100 µM (inactive)	> 100 µM (inactive)	16.8 µM (inactive)	> 100 µM (inactive)	20 µM (inactive)	> 100 µM (inactive)	18.8 µM (inactive)	41.1 µM	18.2 µM (inactive)	86.5 µM (inactive)	21.4 µM (inactive)	47.3 µM (inactive)	32.3 µM (inactive)	21.2 µM (inactive)	> 100 µM (inactive)	67 µM (inactive)	> 100 µM (inactive)	> 100 µM (inactive)	17.9 µM (inactive)
O=C(NCCCCCN1CCC2(CCCCC2)CC1)C(C1CCCCC1)C1CCCCC1	5.73 µM (inactive)	4.17 µM (inactive)	2.51 µM (inactive)	1.88 µM (inactive)	6.11 µM (inactive)	1.85 µM (inactive)	3.55 µM (inactive)	5.08 µM (inactive)	3.08 µM	1.91 µM (inactive)	4.6 µM (inactive)	3.05 µM (inactive)	4.24 µM (inactive)	5.15 µM (inactive)	5.35 µM (inactive)	6.22 µM (inactive)	2.48 µM (inactive)	2.6 µM (inactive)	5.94 µM (inactive)	4.34 µM (inactive)
Cc1cc[n+]2c(c1)-c1cc(C)cc[n+]1CC2	> 100 µM (inactive)	45.2 µM (inactive)	> 100 µM (inactive)	> 100 µM (inactive)	> 100 µM (inactive)	> 100 µM (inactive)	89.9 µM (inactive)	> 100 µM (inactive)	> 100 µM	> 100 µM (inactive)	> 100 µM (inactive)	> 100 µM (inactive)	51.2 µM (inactive)	> 100 µM (inactive)	> 100 µM (inactive)	> 100 µM (inactive)	> 100 µM (inactive)	> 100 µM (inactive)	> 100 µM (inactive)	> 100 µM (inactive)
COc1cc(/C=C/c2ccc(OC)c(OC)c2)cc(OC)c1 [(E)-3,4,3',5'-TETRAMETHOXYSTILBENE]	84.9 µM (inactive)	23.7 µM (inactive)	23.6 µM (inactive)	22.2 µM (inactive)	15.5 µM (inactive)	63.7 µM (inactive)	31.3 µM (inactive)	20.7 µM (inactive)	7.08 µM	41.3 µM (inactive)	45.2 µM (inactive)	25.8 µM (inactive)	46.9 µM (inactive)	73.6 µM (inactive)	39.5 µM (inactive)	39.8 µM (inactive)	19.8 µM (inactive)	28.7 µM (inactive)	37.8 µM (inactive)	24.7 µM (inactive)
O=C(NCP(=O)(c1ccccc1)c1ccccc1)OCc1ccccc1	> 100 µM (inactive)	54.3 µM (inactive)	> 100 µM (inactive)	58.6 µM (inactive)	> 100 µM (inactive)	27.4 µM (inactive)	> 100 µM (inactive)	37.2 µM (inactive)	> 100 µM	> 100 µM (inactive)	> 100 µM (inactive)	43.6 µM (inactive)	> 100 µM (inactive)	67.3 µM (inactive)	21.4 µM (inactive)	> 100 µM (inactive)	> 100 µM (inactive)	> 100 µM (inactive)	66.8 µM (inactive)	84.5 µM (inactive)
CC12CCC(=O)C=C1CCC1C2C(O)CC2(C)C(c3csc(N)n3)CCC12.O=S(=O)(O)c1ccc(Br)cc1 (stereo not given)	> 100 µM (inactive)	> 100 µM (inactive)	> 100 µM (inactive)	> 100 µM (inactive)	> 100 µM (inactive)	> 100 µM (inactive)	> 100 µM (inactive)	> 100 µM (inactive)	> 100 µM	> 100 µM (inactive)	> 100 µM (inactive)	> 100 µM (inactive)	> 100 µM (inactive)	> 100 µM (inactive)	> 100 µM (inactive)	> 100 µM (inactive)	> 100 µM (inactive)	> 100 µM (inactive)	> 100 µM (inactive)	> 100 µM (inactive)
NCC(=O)Nc1ccc(S(=O)(=O)O)c2cc(S(=O)(=O)O)cc(S(=O)(=O)O)c12	> 100 µM (inactive)	> 100 µM (inactive)	> 100 µM (inactive)	> 100 µM (inactive)	> 100 µM (inactive)	> 100 µM (inactive)	> 100 µM (inactive)	> 100 µM (inactive)	> 100 µM	> 100 µM (inactive)	> 100 µM (inactive)	> 100 µM (inactive)	> 100 µM (inactive)	> 100 µM (inactive)	> 100 µM (inactive)	> 100 µM (inactive)	> 100 µM (inactive)	> 100 µM (inactive)	> 100 µM (inactive)	> 100 µM (inactive)
O=C1C2C3C=CC(C2C(=O)N1CN1CCOCC1)C1C2C(=O)N(CN4CCOCC4)C(=O)C2C31 (stereo not given)	> 48 µM (inactive)	> 55.7 µM (inactive)	> 100 µM (inactive)	> 62.2 µM (inactive)	> 44.7 µM (inactive)	> 100 µM (inactive)	> 44.7 µM (inactive)	> 42.8 µM (inactive)	> 42.4 µM	> 56.8 µM (inactive)	> 100 µM (inactive)	> 100 µM (inactive)	> 56 µM (inactive)	> 71.4 µM (inactive)	> 44.5 µM (inactive)	> 59.2 µM (inactive)	> 47 µM (inactive)	> 46.5 µM (inactive)	> 56 µM (inactive)	> 45.3 µM (inactive)
CC(=O)Oc1ccc2c3c1O[C@H]1[C@H](O)CC[C@@]4(O)[C@@H](C2)N(C)CC[C@]314	> 100 µM (inactive)	> 100 µM (inactive)	> 100 µM (inactive)	> 100 µM (inactive)	> 100 µM (inactive)	> 100 µM (inactive)	> 100 µM (inactive)	> 100 µM (inactive)	> 100 µM	> 100 µM (inactive)	> 100 µM (inactive)	> 100 µM (inactive)	> 100 µM (inactive)	> 100 µM (inactive)	> 100 µM (inactive)	> 100 µM (inactive)	> 100 µM (inactive)	> 100 µM (inactive)	> 100 µM (inactive)	> 100 µM (inactive)
COc1cc(COC(=O)N2CCC2C(=O)O)c([N+](=O)[O-])cc1OC (stereo not given)	> 100 µM (inactive)	> 100 µM (inactive)	> 100 µM (inactive)	> 100 µM (inactive)	> 100 µM (inactive)	> 100 µM (inactive)	> 100 µM (inactive)	> 100 µM (inactive)	> 100 µM	> 100 µM (inactive)	> 100 µM (inactive)	> 100 µM (inactive)	> 100 µM (inactive)	> 100 µM (inactive)	> 100 µM (inactive)	> 100 µM (inactive)	> 100 µM (inactive)	> 100 µM (inactive)	> 100 µM (inactive)	> 100 µM (inactive)
COc1ccc(C2OC(=O)c3ccc4ccccc4c32)c(C)c1 (stereo not given)	14.7 µM (inactive)	6.44 µM (inactive)	7.6 µM (inactive)	2.98 µM (inactive)	5.87 µM (inactive)	7.26 µM (inactive)	10.1 µM (inactive)	12.7 µM (inactive)	4.1 µM	12.2 µM (inactive)	22.2 µM (inactive)	10.2 µM (inactive)	5.51 µM (inactive)	7.82 µM (inactive)	45.2 µM (inactive)	19.9 µM (inactive)	6.93 µM (inactive)	3.96 µM (inactive)	6.31 µM (inactive)	4.86 µM (inactive)
CCOC(=O)/C=C1\Nc2ccccc2C12CCc1c([nH]c3ccccc13)C2C(=O)OCC (stereo not given)	> 100 µM (inactive)	44.2 µM (inactive)	61.2 µM (inactive)	79.4 µM (inactive)	20.5 µM (inactive)	> 100 µM (inactive)	44.3 µM (inactive)	57.8 µM (inactive)	46.5 µM	71.8 µM (inactive)	98.2 µM (inactive)	58.7 µM (inactive)	8.59 µM (inactive)	30.2 µM (inactive)	30.1 µM (inactive)	> 100 µM (inactive)	59.3 µM (inactive)	17.8 µM (inactive)	29.7 µM (inactive)	> 100 µM (inactive)
OCC1OC(n2cnc3c(/C=C(/O)c4ccccc4)ncnc32)C(O)C1O (stereo not given)	12.4 µM (inactive)	2.77 µM (inactive)	3.03 µM (inactive)	5.13 µM (inactive)	4.62 µM (inactive)	5.21 µM (inactive)	3.19 µM (inactive)	2.94 µM (inactive)	1.05 µM	4.93 µM (inactive)	1.61 µM (inactive)	14.4 µM (inactive)	0.927 µM (active)	0.428 µM (active)	5.78 µM (inactive)	3.98 µM (inactive)	8.3 µM (inactive)	0.875 µM (active)	1.29 µM (inactive)	10.9 µM (inactive)
